In series [1] the test system is DBTRG-05MG. As to the kind of experiment: Synergistic cytotoxicity against human DBTRG-05MG cells assessed as combination index at 134.9 uM after 48 hrs in presence of 412.1 uM TMZ by MTT assay. Type of series: functional. Background: Formazan colour is commonly taken as a measure of viable cells.
Series [2] in a line: Synergistic cytotoxicity against rat CTX TNA2 cells assessed as synergistic effect index at 89.9 uM after 48 hrs in presence of 515.1 uM TMZ by MTT assay. Type of series: cell-based. Conditions: ctx tna2, 48 h.
In series [3] the test system is DBTRG-05MG. As to the kind of experiment: Induction of cell cycle arrest in human DBTRG-05MG cells assessed as accumulation at G2/M phase at 112.4 uM after 48 hrs in presence of TMZ by propidium iodide staining based flow cytometric analysis (reference value: 30.08 +/- 0.1%). The format is functional. (Flow cytometry measures light scatter and fluorescence of single cells or particles in a stream.)

Series [4] deals with RG2. As to the kind of experiment: Synergistic cytotoxicity against rat RG2 cells assessed as synergistic effect index at 89.9 uM after 48 hrs in presence of 309 uM TMZ by MTT assay. Type of series: functional.
For series [5], the system named is DBTRG-05MG. As to the kind of experiment: Synergistic cytotoxicity against human DBTRG-05MG cells assessed as synergistic effect index at 89.9 uM after 48 hrs in presence of 309 uM TMZ by MTT assay. The format is functional.
In series [6] the test system is RG2. As to the kind of experiment: Synergistic cytotoxicity against rat RG2 cells assessed as combination index at 134.9 uM after 48 hrs in presence of 309 uM TMZ by MTT assay. Type of series: functional.
Series [7] has as its system DBTRG-05MG. Nature of the series: Induction of cell cycle arrest in human DBTRG-05MG cells assessed as accumulation at G2/M phase at 112.4 uM after 48 hrs by propidium iodide staining based flow cytometric analysis (reference value: 30.08 +/- 0.1%). The format is functional.
Series [8] can be described thus: Synergistic cytotoxicity against rat CTX TNA2 cells assessed as synergistic effect index at 89.9 uM after 48 hrs in presence of 412.1 uM TMZ by MTT assay. The format is cell-based. Conditions: ctx tna2, 48 h.
Series [9] in a line: Synergistic cytotoxicity against rat CTX TNA2 cells assessed as combination index at 89.9 uM after 48 hrs in presence of 103 uM TMZ by MTT assay. Type of series: cell-based. The note with it: ctx tna2, 48 h.
The test system of series [10] is RG2. As to the kind of experiment: Induction of cell cycle arrest in rat RG2 cells assessed as accumulation at S phase at 112.4 uM after 48 hrs in presence of TMZ by propidium iodide staining based flow cytometric analysis (reference value: 20.15 +/- 2.44%). Type of series: functional.
The test system of series [11] is DBTRG-05MG. As to the kind of experiment: Induction of apoptosis in human DBTRG-05MG cells assessed as increase in apoptotic body formation at 112.4 uM after 48 hrs by TUNEL assay. The format is functional, cell-based.
Series [12] relates to RG2. As to the kind of experiment: Induction of cell cycle arrest in rat RG2 cells assessed as accumulation at S phase at 112.4 uM after 12 hrs by propidium iodide staining based flow cytometric analysis (reference value: 20.15 +/- 2.44%). Type of series: functional.
Series [13] deals with DBTRG-05MG. As to the kind of experiment: Induction of cell cycle arrest in human DBTRG-05MG cells assessed as CDK2 expression at 112.4uM after 48 hrs by Western blot analysis (reference value: 1). Type of series: functional. Background: Immunoblotting shows a protein as a band on a membrane.
A short description of series [14]: Effect on ERK expression in human DBTRG-05MG cells at 112.4uM after 48 hrs by Western blot analysis (reference value: 1). Type of series: functional.
Series [15] relates to RG2. Nature of the series: Induction of apoptosis in rat RG2 cells assessed as phosphorylated caspace-9 expression at 112.4 uM after 48 hrs by Western blot analysis (reference value: 1). Type of series: functional.
Series [16] deals with DBTRG-05MG. Nature of the series: Induction of apoptosis in human DBTRG-05MG cells assessed as cleaved PARP expression at 112.4 uM after 48 hrs in presence of TMZ by Western blot analysis (reference value: 1). Type of series: functional.
Series [17] deals with RG2. Nature of the series: Induction of DNA damage in rat RG2 cells assessed as Chk1 phosphorylation at ser345 at 112.4 uM after 48 hrs by Western blot analysis (reference value: 1). The format is functional.
The nature of series [18]: Effect on AKT expression in human DBTRG-05MG cells at 112.4uM after 48 hrs by Western blot analysis (reference value: 1). The format is functional.
The subject of series [19] is RG2. As to the kind of experiment: Induction of cell cycle arrest in rat RG2 cells assessed as accumulation at S phase at 112.4 uM after 12 hrs in presence of TMZ by propidium iodide staining based flow cytometric analysis (reference value: 20.15 +/- 2.44%). The format is functional.
A short description of series [20]: Effect of CD133 expression in human DBTRG-05MG cells at 112.4 uM after 48 hrs by Western blot analysis. The format is functional.
The test system of series [21] is RG2. As to the kind of experiment: Synergistic cytotoxicity against rat RG2 cells assessed as synergistic effect index at 134.9 uM after 48 hrs in presence of 412.1 uM TMZ by MTT assay. Type of series: functional.
Series [22] relates to DBTRG-05MG. Nature of the series: Induction of apoptosis in human DBTRG-05MG cells assessed as increase in chromatin condensation at 112.4 uM after 48 hrs in presence of TMZ by TUNEL assay. Type of series: functional, cell-based.
Series [23] deals with DBTRG-05MG. Nature of the series: Synergistic cytotoxicity against human DBTRG-05MG cells assessed as combination index at 112.4 uM after 48 hrs in presence of 206 uM TMZ by MTT assay. Type of series: functional.
The nature of series [24]: Synergistic cytotoxicity against rat CTX TNA2 cells assessed as combination index at 134.9 uM after 48 hrs in presence of 206 uM TMZ by MTT assay. The format is cell-based. Conditions: ctx tna2, 48 h.
The target in series [25] is Serine/threonine-protein kinase AKT (Homo sapiens) (UniProt P31751+Q9Y243+P31749). As to the kind of experiment: Inhibition of AKT phosphorylation at S473 residues in human DBTRG-05MG cells at 112.4uM after 48 hrs in presence of TMZ by Western blot analysis. Type of series: cell-based.
Series [26] deals with RG2. Nature of the series: Induction of cell cycle arrest in rat RG2 cells assessed as accumulation at S phase at 206 uM after 48 hrs by propidium iodide staining based flow cytometric analysis (reference value: 20.15 +/- 2.44%). Type of series: functional.
The subject of series [27] is DBTRG-05MG. Nature of the series: Antitumour activity against human DBTRG-05MG cells xenografted in BALB/c nude mouse assessed as increase in survival time at 5 mg/kg, ip for 5 days and measured every 2 days. The note with it: time 5.0 day. The format is functional, organism-based.
For series [28], the system named is RG2. Nature of the series: Induction of apoptosis in rat RG2 cells assessed as increase in chromatin condensation at 206 uM after 48 hrs by TUNEL assay. Type of series: functional, cell-based.
The subject of series [29] is RG2. Nature of the series: Induction of cell cycle arrest in rat RG2 cells assessed as CDK2 expression at 206 uM after 48 hrs by Western blot analysis (reference value: 1). Type of series: functional.
The subject of series [30] is DBTRG-05MG. Nature of the series: Induction of apoptosis in human DBTRG-05MG cells assessed as phosphorylated caspace-9 expression at 206 uM after 48 hrs by Western blot analysis (reference value: 1). The format is functional.
Series [31] relates to DBTRG-05MG. As to the kind of experiment: Antitumour activity against human DBTRG-05MG cells xenografted in BALB/c nude mouse assessed as reduction in tumour growth at 5 mg/kg, ip for 5 days and measured every 2 days. The note with it: time 5.0 day. The format is functional, organism-based.
Series [32] is described as follows: Effect on p38 expression in human DBTRG-05MG cells at 206 uM after 48 hrs by Western blot analysis (reference value: 1). Type of series: functional.
The subject of series [33] is RG2. Nature of the series: Induction of cell cycle arrest in rat RG2 cells assessed as accumulation at G2/M phase at 206 uM after 48 hrs by propidium iodide staining based flow cytometric analysis (reference value: 20.04 +/- 0.55%). Type of series: functional.
Series [34] has as its system DBTRG-05MG. Nature of the series: Induction of cell cycle arrest in human DBTRG-05MG cells assessed as p53 expression at 206 uM after 48 hrs by Western blot analysis (reference value: 1). The format is functional.

Activity calls are given as the source filed them. The calls are words filed in the database; no cut-off is given here.

Sequence of Serine/threonine-protein kinase AKT (Homo sapiens) (P31749 whole entry, looked up): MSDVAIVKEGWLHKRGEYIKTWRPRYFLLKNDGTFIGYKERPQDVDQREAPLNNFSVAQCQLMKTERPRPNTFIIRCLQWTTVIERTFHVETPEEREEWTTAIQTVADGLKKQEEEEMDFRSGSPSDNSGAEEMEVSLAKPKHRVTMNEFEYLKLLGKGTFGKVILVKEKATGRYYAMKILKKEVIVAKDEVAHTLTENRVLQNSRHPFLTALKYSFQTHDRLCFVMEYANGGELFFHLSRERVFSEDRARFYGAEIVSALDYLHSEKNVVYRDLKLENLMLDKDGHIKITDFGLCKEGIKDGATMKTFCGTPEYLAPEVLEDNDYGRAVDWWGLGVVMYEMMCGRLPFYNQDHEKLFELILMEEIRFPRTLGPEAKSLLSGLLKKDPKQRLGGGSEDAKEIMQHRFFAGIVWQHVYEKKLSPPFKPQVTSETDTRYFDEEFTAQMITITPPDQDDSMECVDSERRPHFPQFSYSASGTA
Sequence of Serine/threonine-protein kinase AKT (Homo sapiens) (P31751 whole entry, looked up): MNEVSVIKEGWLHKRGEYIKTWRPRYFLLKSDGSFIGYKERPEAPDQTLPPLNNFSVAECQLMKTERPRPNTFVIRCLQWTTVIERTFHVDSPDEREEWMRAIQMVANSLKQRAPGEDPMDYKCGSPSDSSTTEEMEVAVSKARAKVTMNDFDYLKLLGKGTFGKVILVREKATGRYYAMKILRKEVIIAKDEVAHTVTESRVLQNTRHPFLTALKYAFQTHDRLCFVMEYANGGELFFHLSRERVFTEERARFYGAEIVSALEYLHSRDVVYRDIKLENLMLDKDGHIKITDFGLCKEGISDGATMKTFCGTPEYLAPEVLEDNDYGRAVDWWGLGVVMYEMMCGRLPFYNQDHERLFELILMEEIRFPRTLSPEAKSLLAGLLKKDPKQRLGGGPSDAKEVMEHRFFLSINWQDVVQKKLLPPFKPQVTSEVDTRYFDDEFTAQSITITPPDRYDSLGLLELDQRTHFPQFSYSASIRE
Sequence of Serine/threonine-protein kinase AKT (Homo sapiens) (Q9Y243 whole entry, looked up): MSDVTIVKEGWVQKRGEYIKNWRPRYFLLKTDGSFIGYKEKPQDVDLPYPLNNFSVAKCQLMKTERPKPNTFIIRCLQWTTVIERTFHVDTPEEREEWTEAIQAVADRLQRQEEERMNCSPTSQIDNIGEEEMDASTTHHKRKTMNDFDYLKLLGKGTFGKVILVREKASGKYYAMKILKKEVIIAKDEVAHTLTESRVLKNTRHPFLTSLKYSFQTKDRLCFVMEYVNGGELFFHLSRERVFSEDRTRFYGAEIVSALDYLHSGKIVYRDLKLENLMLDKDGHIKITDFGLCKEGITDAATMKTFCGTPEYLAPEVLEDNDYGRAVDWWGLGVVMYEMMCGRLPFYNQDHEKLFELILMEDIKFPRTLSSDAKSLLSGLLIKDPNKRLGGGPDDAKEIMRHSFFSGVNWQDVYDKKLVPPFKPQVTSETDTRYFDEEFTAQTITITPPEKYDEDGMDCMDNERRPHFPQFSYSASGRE

`C[C@@H]1CC[C@H]2C(C)(C)[C@H]3C[C@@]12CC[C@@]3(C)O` [CEDROL]: the CI in series [1] came out at 0.6; in [6], 0.92; in [9], 1.24; in series [23] it was 0.5; in series [24], 1.13. Besides, the Activity_index in series [2] was found to be 0.68; in series [4] it was 0.72; in series [5], 0.75; in series [8], 0.56; in series [21], 0.9. In addition, the Activity in series [3] is 38.26%; in series [7], 28.83%; in series [10], 20.29%; in series [12], 16.92%; in series [19], 21.29%. For the same compound, the result in series [11] and in [22] was Active. Moreover, the “fold change (FC)” value in series [13] came to 0.7; in series [14] it was 1; in series [15], 0.6; in series [16], 1.9; in [17], 1.1; in series [18], 0.9. Further, the “fold change (FC)” value in series [20] came to 1.5; in series [25], 0.5.

With `Cn1nnc2c(C(N)=O)ncn2c1=O` [TEMOZOLOMIDE], the Activity came out at 18.32% in [26] and 54.71% in series [33]. The result in series [27], in series [28] and in series [31] was Active. The “fold change (FC)” value in series [29] came to 0.9; in series [30] it was 0.3; in series [32], 0.9; in series [34], 2.

The values are drawn from ChEMBL document CHEMBL4699511, “Cedrol, a Sesquiterpene Alcohol, Enhances the Anticancer Efficacy of Temozolomide in Attenuating Drug Resistance via Regulation of the DNA Damage Response and MGMT Expression” (J Nat Prod, 2020).
